Experimental findings from patent US10093675B2, “6,8-disubstituted-9-(heterocyclyl)purines, compositions containing these derivatives and their use in cosmetic and medicinal applications” (USTAV EXPERIMENTALNI BOTANIKY AV CR, V.V.I., priority 2014, dated 2018) are described below.

For data set [1], the system named is excised wheat leaf tips (Triticum aestivum cv. Hereward). Put plainly: Senescence inhibition on winter wheat leaf segments (retention of chlorophyll). The settings on record: 10^−4 mol/L; 96 hours in the dark; activity of kinetin set at 100%. The format is in vivo. As to the method: Seeds of winter wheat, Triticum aestivum cv. Hereward, were washed under running water for 24 hours and then sown on vermiculite soaked with Knop's solution. They were placed in the grown chamber at 25° C. with a 16/8 hours light period at […]. After 7 days, the first leaf was fully developed and the second leaf had started to grow. A tip section of the first leaf, approximately 35 mm long, was removed from 5 seedlings and trimmed slightly to a combined weight of 100 mg. The basal ends of the five leaf tips were placed in the wells of a microtiter polystyrene plate containing […] of a cytokinin solution each. The entire plate was inserted into a plastic box lined with paper tissues soaked in distilled water to prevent leaf sections from drying out. After 96 hours incubation in the dark at 25° C., the leaves were removed and chlorophyll extracted by heating at 80 C for 10 min in 5 ml of 80% ethanol (v/v). The sample volume was then restored to 5 ml by the addition of 80% ethanol (v/v). The absorbance of the extract was recorded at 665 nm. In addition, chlorophyll extracts from fresh leaves and leaf tips incubated in deionized water were measured. From the obtained data, the concentration with highest activity was selected for each compound tested. Relative activity of the compound at this concentration was calculated (see Table 6 below). The activity obtained for 10^−4 M kinetin (Kin) was set as 100%. The values shown are means of five replicates and the whole experiment was repeated twice.
The compounds to be tested were dissolved in dimethylsulfoxide (DMSO) and the solution brought up to 10^−3 M with distilled water. […] As summarized in Table 6 below, the presence of C-8 substitutent was beneficial and led to increase of antisenescent properties.

Data set [2] relates to Salmonella typhimurium histidien auxotrophs TA98 and TA100. Put plainly: Ames test. The format is cell-based. The settings on record: 2.5 to 5000 μg/plate; presence and absence of Aroclor-induced rat liver S9. The method, then: A number of tests related to the safety of have been carried out using conventionally accepted protocols and procedures. The results of these studies are summarized herein. Tests were carried out using DMSO as solvent and dose levels of compound 21, 24, 26, 27, 39, 41, 45, 48, 50, 52, 53, 54, 55, 56, 63, 64, 66, 67, 68, 69, 70, 71, 72, 74, 76, 124, 125, 126, 127, 128, 129, 130, 145, 146, 147, 149, 150, 151, 208, 216, 218 a 243 at 2.5, 5.0, 15, 50, 500, 1500, and 5000 μg/plate based upon standard protocol and procedures (Ames et al., Mutation Research, 31, 347-364 (1975); Maron et al., Mutation Research, 113, 173-215 (1983)).

For data set [3], the system named is human diploid fibroblasts (HDF cells; HDF25, HDF45, HDF80). Put plainly: Inhibition of human cell aging: senescent cells by beta-galactosidase staining. The settings on record: for SENESCENT CELLS (%) HDF25: human diploid fibroblasts passage 25, beta-galactosidase staining; for SENESCENT CELLS (%) HDF45: human diploid fibroblasts passage 45, beta-galactosidase staining; for SENESCENT CELLS (%) HDF80: human diploid fibroblasts passage 80, beta-galactosidase staining. It is filed as cell-based. The method, then:
In this example, human diploid fibroblasts (HDF cells of various passage levels: passage 25—designated HDF25; passage 45—designated HDF45; passage 80—designated HDF80) were stained for beta-galactosidase activity. The medium used for the cell cultivation was removed the cells were washed twice in […], and fixed in 2-3 ml of fixing solution comprised of a 2% formaldehyde and 0.2% glutaraldehyde in PBS. The cells were incubated at room temperature for 5 minutes, and then washed twice with PBS. The cells were subsequently incubated at 37° C. […] In this experiment, senescent cells, but no other cells were stained blue due to the action of beta-galactosidase on the substrate.

For data set [4], the system named is cytokinin-dependent tobacco callus Nicotiana tabacum L. cv. Wisconsin 38. Put plainly: Plant cell division: growth of cytokinin-dependent tobacco callus. The format is cell-based. As to the method:
Cytokinin-dependent tobacco callus Nicotiana tabacum L. cv. Wisconsin 38 was maintained at 25° C. in darkness on modified MS medium, containing 4 μmol/l nicotinic acid, 2.4 μmol/l pyridoxine hydrochloride, 1.2 μmol/l thiamine, 26.6 μmol/l glycine, 1.37 μmol/l glutamine, 1.8 μmol/l myo-inositol, 30 g/l of sucrose, 8 g/l of agar, 5.37 μmol/l NAA and 0.5 μmol/l BAP. Subcultivation was carried out every three weeks. Fourteen days before the bioassay, the callus tissue was transferred to the media without BAP. Biological activity was determined from the increase in fresh callus weight after four weeks of cultivation. Five replicates were prepared for each cytokinin concentration and the entire test was repeated twice. From the obtained data, the concentration with highest activity was selected for each compound tested. Relative activity at this concentration was calculated (see Table 17 below). The activity obtained for 10^−6 M kinetin (Kin) was set as 100%.
The cytokinins to be tested were dissolved in dimethylsulfoxide (DMSO) and the solution brought up to 10^−3M with distilled water.

For `Fc1ccc(CNc2ncnc3c2nc(Cl)n3C2CCCCO2)cc1F` (stereo not shown) [Compound 11], in data set [1], the “Activity (%) (s.d.), retention of chlorophyll” value (from here on “Activity (%) (s.d.), retention”) was 127 (±5) %.

As to `COc1ccc(CNc2ncnc3c2nc(Cl)n3C2CCCCO2)cc1OC` (stereo not shown) [Compound 12], the “Activity (%) (s.d.), retention” value in data set [1] is 140 (±7) %.

In the case of `COc1ccc(CNc2ncnc3c2nc(Br)n3C2CCCCO2)cc1OC` (stereo not shown) [Compound 41], the “Activity (%) (s.d.), retention” value in data set [1] is recorded as 133 (±7) %. The mutagenic response result in data set [2] is “no positive mutagenic responses”. In data set [3], the “SENESCENT CELLS (%) HDF25” value worked out at 2%, the “SENESCENT CELLS (%) HDF45” value worked out at 6% and the “SENESCENT CELLS (%) HDF80” value turned out to be 21%.

On to `Ic1nc2c(NCc3ccco3)ncnc2n1C1CCCCO1` (stereo not shown) [Compound 45, 8-Iodo-6-furfurylamino-9-(tetrahydropyran-2-yl)-9H-purine], for which, in data set [1], the “Activity (%) (s.d.), retention” value was 112 (±4) %. Further, the mutagenic response entry in data set [2] is on record as “no positive mutagenic responses”. Further, in data set [3], the “SENESCENT CELLS (%) HDF25” value stood at 3%, the “SENESCENT CELLS (%) HDF45” value was 5% and the “SENESCENT CELLS (%) HDF80” value turned out to be 20%.

Consider `C/C(=C\CNc1ncnc2c1nc(I)n2C1CCCCO1)CO` (stereo not shown) [Compound 48], for which the “Activity (%) (s.d.), retention” value in data set [1] was 120 (±4) %. In data set [2], the mutagenic response entry is listed as “no positive mutagenic responses”. Also, in data set [3], the “SENESCENT CELLS (%) HDF25” value was determined as 2%, the “SENESCENT CELLS (%) HDF45” value was found to be 4% and the “SENESCENT CELLS (%) HDF80” value is 21%.

Turning to `Fc1cccc(CNc2ncnc3c2nc(I)n3C2CCCCO2)c1` (stereo not shown) [Compound 50], the “Activity (%) (s.d.), retention” value in data set [1] is listed as 121 (±4) %. In addition, the mutagenic response result in data set [2] is given as “no positive mutagenic responses”. In addition, in data set [3], the “SENESCENT CELLS (%) HDF25” value worked out at 3%, the “SENESCENT CELLS (%) HDF45” value is on record as 4% and the “SENESCENT CELLS (%) HDF80” value is given as 19%.

As to `COc1cccc(CNc2ncnc3c2nc(I)n3C2CCCCO2)c1` (stereo not shown) [Compound 52], in data set [1], the “Activity (%) (s.d.), retention” value is recorded as 120 (±3) %. In data set [2], the mutagenic response result is “no positive mutagenic responses”. Further, in data set [3], the “SENESCENT CELLS (%) HDF25” value amounted to 2%, the “SENESCENT CELLS (%) HDF45” value is reported as 6% and the “SENESCENT CELLS (%) HDF80” value turned out to be 21%.

As to `Oc1cccc(CNc2ncnc3c2nc(I)n3C2CCCCO2)c1` (stereo not shown) [Compound 53], in data set [1], the “Activity (%) (s.d.), retention” value is 125 (±6) %. Also, the mutagenic response entry in data set [2] is given as “no positive mutagenic responses”. Besides, in data set [3], the “SENESCENT CELLS (%) HDF25” value is 2%, the “SENESCENT CELLS (%) HDF45” value worked out at 5% and the “SENESCENT CELLS (%) HDF80” value is reported as 21%.

Consider `Oc1ccc(CNc2ncnc3c2nc(I)n3C2CCCCO2)cc1O` (stereo not shown) [Compound 54], for which, in data set [1], the “Activity (%) (s.d.), retention” value is on record as 138 (±7) %. Further, in data set [2], the mutagenic response result is “no positive mutagenic responses”. In addition, in data set [3], the “SENESCENT CELLS (%) HDF25” value is listed as 3%, the “SENESCENT CELLS (%) HDF45” value amounted to 5% and the “SENESCENT CELLS (%) HDF80” value was 20%.

Consider `Fc1ccc(CNc2ncnc3c2nc(I)n3C2CCCCO2)cc1F` (stereo not shown) [Compound 55], for which the “Activity (%) (s.d.), retention” value in data set [1] is listed as 133 (±5) %. In data set [2], the mutagenic response entry is “no positive mutagenic responses”. In data set [3], the “SENESCENT CELLS (%) HDF25” value is reported as 3%, the “SENESCENT CELLS (%) HDF45” value amounted to 4% and the “SENESCENT CELLS (%) HDF80” value is 18%.

Turning to `CC(C)=CCNc1ncnc2c1nc(Br)n2C1CCCO1` (stereo not shown) [Compound 75], the “Activity (%); (s.d.)” value in data set [4] (relative activity at concentration with highest activity, 10^−6 M kinetin set at 100%) is 119 (±4) %. Further, in data set [4] (tobacco callus fresh weight increase after four weeks, tested 10^−8 M to 10^−4 M), the “Concentration with highest activity (mol/l)” value is given as 10^−6-10^−4 mol/l.

Turning to `OCCNc1nc2c(NCc3ccco3)ncnc2n1C1CCCCO1` (stereo not shown) [Compound 243, 6-furfurylamino-8-(2-hydroxyethylamino)-9-(tetrahydropyran-2-yl)-9H-purine], the mutagenic response result in data set [2] is given as “no positive mutagenic responses”.

With `c1coc(CNc2ncnc3[nH]cnc23)c1` [kinetin, reference compound], in data set [1], the “Activity (%) (s.d.), retention” value is reported as 100%. Moreover, in data set [3], the “SENESCENT CELLS (%) HDF25” value is listed as 3%, the “SENESCENT CELLS (%) HDF45” value turned out to be 5% and the “SENESCENT CELLS (%) HDF80” value is 38%.
